From ChEMBL document CHEMBL5442175, “EUbOPEN Chemogenomics Library - PDSP Secondary Binding” (2024)
Counter-ions that a name gives are not always drawn.

How the values were obtained:
[1] = target: Sodium-dependent dopamine transporter (Homo sapiens, UniProt Q01959); assay: (§1) PDSP Secondary Binding target: SLC6A3 - Compounds are tested at 10 uM concentration, plate are incubated at room temperature in the dark for 90 minutes. Reaction are stopped by vacuum filtration onto 0.3% polyethyleneimine soaked filter mats using Filtermate harvester. Scintillation cocktail is then melted onto microwave-dried filters on a hot plate and the radio activity is counted in Microbia counter.
Chain of Sodium-dependent dopamine transporter (Q01959 whole entry): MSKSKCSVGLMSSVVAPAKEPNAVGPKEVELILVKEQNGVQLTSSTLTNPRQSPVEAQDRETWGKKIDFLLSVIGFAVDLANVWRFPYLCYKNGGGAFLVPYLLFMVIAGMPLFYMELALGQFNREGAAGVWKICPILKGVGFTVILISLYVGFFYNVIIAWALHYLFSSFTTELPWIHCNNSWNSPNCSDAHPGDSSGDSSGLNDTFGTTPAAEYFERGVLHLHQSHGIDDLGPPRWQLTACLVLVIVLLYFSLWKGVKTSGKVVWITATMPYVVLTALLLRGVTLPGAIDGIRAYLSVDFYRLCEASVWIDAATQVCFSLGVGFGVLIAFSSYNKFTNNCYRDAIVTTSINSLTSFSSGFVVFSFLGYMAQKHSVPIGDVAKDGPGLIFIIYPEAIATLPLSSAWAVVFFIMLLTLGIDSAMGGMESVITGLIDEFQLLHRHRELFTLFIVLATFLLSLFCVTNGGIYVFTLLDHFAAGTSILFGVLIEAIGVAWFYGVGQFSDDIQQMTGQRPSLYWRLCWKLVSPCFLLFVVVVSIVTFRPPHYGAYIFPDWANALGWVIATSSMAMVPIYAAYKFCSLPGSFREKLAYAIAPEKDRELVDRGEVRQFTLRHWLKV

[2] = target: T1, Muscarinic acetylcholine receptor M5 (Homo sapiens, UniProt P08912); assay: as §1, with “CHRM5” for “SLC6A3”
T1 sequence (P08912 whole entry): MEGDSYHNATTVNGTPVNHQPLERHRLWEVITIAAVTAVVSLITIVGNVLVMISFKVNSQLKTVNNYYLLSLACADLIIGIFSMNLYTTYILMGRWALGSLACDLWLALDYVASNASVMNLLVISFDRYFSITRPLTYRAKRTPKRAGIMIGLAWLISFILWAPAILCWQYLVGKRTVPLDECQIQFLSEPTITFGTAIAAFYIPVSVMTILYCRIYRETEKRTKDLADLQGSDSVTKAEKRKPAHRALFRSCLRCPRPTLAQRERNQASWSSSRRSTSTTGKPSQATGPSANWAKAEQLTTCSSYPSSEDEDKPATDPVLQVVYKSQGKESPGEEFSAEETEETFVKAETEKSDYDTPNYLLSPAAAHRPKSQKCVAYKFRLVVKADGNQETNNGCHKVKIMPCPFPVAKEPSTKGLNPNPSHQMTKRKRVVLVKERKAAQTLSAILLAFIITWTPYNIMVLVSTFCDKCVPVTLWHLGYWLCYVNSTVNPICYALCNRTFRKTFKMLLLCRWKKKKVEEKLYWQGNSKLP

[3] = target: 5-hydroxytryptamine receptor 5A (Homo sapiens, UniProt P47898); assay: as §1, with “HTR5A” for “SLC6A3”
Chain of 5-hydroxytryptamine receptor 5A (P47898 whole entry): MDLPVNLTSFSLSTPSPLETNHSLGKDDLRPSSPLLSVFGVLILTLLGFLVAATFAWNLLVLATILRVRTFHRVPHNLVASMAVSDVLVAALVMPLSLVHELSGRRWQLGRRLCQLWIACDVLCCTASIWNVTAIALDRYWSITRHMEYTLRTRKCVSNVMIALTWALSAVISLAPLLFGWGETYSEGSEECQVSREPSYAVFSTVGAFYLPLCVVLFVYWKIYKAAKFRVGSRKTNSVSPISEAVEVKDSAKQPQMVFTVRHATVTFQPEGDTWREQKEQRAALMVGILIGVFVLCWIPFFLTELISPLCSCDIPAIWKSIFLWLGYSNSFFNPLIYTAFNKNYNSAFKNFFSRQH

[4] = target: 5-hydroxytryptamine receptor 7 (Homo sapiens, UniProt P34969); assay: as §1, with “HTR7” for “SLC6A3”
Chain of 5-hydroxytryptamine receptor 7 (P34969 whole entry): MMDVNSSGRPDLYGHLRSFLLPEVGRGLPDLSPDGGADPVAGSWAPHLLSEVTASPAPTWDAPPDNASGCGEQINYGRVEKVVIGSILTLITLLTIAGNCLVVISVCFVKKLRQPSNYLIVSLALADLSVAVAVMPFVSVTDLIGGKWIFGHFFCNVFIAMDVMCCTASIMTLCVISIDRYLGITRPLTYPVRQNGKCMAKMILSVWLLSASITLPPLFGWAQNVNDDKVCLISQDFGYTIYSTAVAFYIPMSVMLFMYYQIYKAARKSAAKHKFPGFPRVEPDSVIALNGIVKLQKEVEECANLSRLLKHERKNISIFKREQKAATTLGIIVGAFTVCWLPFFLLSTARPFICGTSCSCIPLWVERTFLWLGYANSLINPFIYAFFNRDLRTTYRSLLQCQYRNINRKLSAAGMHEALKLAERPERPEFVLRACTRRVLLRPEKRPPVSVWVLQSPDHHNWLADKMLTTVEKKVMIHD

[5] = target: T2, 5-hydroxytryptamine receptor 1A (Homo sapiens, UniProt P08908); assay: as §1, with “HTR1A” for “SLC6A3”
T2 sequence (P08908 whole entry): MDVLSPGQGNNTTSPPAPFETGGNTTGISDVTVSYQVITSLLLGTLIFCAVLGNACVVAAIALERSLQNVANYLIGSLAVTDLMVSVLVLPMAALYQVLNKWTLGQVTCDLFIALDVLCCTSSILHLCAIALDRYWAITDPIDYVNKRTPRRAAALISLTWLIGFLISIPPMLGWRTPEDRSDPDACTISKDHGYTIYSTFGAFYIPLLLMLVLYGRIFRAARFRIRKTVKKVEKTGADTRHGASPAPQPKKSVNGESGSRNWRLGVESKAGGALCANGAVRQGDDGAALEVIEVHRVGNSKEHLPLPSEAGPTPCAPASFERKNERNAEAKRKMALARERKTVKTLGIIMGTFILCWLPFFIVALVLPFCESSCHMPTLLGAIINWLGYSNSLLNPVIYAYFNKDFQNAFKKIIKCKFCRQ

[6] = target: 5-hydroxytryptamine receptor 1B (Homo sapiens, UniProt P28222); assay: as §1, with “HTR1B” for “SLC6A3”
Chain of 5-hydroxytryptamine receptor 1B (P28222 whole entry): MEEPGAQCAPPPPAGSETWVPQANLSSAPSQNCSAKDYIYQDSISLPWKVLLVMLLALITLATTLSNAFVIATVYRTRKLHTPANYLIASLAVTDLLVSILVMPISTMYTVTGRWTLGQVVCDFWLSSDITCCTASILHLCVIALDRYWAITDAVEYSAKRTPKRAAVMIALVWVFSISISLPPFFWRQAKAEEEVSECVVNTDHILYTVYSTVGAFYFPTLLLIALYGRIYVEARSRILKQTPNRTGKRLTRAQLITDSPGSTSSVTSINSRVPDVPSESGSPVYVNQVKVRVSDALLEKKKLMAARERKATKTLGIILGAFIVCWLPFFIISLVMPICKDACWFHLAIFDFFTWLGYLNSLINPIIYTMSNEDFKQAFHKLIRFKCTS

[7] = target: Sigma intracellular receptor 2 (Homo sapiens, UniProt Q5BJF2); assay: as §1, with “TMEM97” for “SLC6A3”
Chain of Sigma intracellular receptor 2 (Q5BJF2 whole entry): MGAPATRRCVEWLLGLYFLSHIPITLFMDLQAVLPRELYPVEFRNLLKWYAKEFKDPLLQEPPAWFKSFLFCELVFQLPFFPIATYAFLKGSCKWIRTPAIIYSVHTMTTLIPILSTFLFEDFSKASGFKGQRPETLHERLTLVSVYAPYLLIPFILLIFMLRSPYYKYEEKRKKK

[8] = target: Sodium-dependent noradrenaline transporter (Homo sapiens, UniProt P23975); assay: as §1, with “SLC6A2” for “SLC6A3”
Chain of Sodium-dependent noradrenaline transporter (P23975 whole entry): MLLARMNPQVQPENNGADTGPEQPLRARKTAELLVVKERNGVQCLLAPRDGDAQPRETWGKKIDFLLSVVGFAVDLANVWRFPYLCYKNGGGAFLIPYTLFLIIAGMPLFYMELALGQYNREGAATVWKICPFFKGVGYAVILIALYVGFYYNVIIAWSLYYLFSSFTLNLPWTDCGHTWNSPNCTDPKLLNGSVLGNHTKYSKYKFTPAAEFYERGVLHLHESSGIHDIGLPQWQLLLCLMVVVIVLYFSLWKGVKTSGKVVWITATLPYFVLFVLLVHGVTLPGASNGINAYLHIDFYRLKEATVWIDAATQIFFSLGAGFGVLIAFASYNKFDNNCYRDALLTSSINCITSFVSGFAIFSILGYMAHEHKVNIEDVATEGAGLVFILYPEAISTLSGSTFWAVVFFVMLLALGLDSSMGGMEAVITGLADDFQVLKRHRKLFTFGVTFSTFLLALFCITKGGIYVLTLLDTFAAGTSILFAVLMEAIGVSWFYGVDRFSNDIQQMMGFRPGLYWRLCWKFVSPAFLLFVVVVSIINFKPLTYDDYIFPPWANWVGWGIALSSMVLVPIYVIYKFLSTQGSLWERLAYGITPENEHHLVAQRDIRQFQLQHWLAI

[9] = target: 5-hydroxytryptamine receptor 1D (Homo sapiens, UniProt P28221); assay: as §1, with “HTR1D” for “SLC6A3”
Chain of 5-hydroxytryptamine receptor 1D (P28221 whole entry): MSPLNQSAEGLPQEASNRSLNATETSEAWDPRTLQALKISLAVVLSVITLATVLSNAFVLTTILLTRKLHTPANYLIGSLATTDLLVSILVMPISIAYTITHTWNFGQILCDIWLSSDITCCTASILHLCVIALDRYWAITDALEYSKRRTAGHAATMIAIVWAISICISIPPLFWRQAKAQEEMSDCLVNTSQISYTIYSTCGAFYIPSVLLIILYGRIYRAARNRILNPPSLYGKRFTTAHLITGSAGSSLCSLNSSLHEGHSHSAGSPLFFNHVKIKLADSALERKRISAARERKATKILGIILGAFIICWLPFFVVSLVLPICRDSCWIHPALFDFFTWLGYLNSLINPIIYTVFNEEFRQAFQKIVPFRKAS

[10] = target: D(1B) dopamine receptor (Homo sapiens, UniProt P21918); assay: as §1, with “DRD5” for “SLC6A3”
Chain of D(1B) dopamine receptor (P21918 whole entry): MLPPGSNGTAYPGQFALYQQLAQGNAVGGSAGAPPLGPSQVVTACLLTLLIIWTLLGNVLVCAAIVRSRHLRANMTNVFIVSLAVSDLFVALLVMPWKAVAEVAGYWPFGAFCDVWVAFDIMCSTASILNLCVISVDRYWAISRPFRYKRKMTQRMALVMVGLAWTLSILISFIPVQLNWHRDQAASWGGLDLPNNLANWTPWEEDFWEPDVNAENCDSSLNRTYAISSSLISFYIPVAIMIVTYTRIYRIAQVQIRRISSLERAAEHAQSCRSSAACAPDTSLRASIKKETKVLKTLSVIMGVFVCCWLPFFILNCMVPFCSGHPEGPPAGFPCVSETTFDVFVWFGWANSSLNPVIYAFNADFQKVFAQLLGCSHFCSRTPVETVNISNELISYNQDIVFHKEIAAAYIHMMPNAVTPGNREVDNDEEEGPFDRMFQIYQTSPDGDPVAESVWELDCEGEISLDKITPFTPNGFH

[11] = target: Translocator protein (Homo sapiens, UniProt P30536); assay: as §1, with “TSPO” for “SLC6A3”
Chain of Translocator protein (P30536 whole entry): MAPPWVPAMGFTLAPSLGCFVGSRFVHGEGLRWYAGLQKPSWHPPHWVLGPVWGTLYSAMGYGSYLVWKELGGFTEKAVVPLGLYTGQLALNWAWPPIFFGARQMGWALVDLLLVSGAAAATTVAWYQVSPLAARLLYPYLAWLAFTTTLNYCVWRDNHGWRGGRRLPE

[12] = target: T3, Alpha-1D adrenergic receptor (Homo sapiens, UniProt P25100); assay: as §1, with “ADRA1D” for “SLC6A3”
T3 sequence (P25100 whole entry): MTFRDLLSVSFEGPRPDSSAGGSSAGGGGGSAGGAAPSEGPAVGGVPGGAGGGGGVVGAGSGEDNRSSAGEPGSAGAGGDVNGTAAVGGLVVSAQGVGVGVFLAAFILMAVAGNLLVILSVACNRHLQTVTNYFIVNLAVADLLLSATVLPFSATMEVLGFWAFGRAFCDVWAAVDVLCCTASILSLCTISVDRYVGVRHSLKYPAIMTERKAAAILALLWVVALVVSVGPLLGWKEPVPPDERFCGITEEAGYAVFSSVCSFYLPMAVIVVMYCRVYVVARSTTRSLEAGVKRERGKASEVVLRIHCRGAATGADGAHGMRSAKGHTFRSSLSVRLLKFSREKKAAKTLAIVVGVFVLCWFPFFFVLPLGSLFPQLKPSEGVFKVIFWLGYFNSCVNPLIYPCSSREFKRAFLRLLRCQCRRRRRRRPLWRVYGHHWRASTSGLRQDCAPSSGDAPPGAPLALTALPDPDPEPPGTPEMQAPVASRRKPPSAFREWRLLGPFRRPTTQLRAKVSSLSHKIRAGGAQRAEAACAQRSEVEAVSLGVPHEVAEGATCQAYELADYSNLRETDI

[13] = target: T4, Alpha-1B adrenergic receptor (Homo sapiens, UniProt P35368); assay: as §1, with “ADRA1B” for “SLC6A3”
T4 sequence (P35368 whole entry): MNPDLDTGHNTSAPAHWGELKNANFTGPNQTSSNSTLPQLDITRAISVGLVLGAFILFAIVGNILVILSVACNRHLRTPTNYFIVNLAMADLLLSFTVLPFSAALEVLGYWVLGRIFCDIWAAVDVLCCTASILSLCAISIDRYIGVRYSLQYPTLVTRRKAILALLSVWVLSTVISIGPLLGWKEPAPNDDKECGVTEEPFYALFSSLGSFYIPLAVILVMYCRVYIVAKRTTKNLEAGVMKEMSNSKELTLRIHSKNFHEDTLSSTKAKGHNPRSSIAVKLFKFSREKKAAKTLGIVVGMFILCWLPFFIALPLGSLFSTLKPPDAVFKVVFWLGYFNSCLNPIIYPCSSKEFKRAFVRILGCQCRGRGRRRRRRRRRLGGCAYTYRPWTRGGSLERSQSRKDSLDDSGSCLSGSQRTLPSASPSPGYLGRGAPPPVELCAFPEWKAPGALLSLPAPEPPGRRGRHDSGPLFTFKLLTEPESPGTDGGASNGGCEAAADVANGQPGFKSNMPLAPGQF

[14] = target: Sodium-dependent serotonin transporter (Homo sapiens, UniProt P31645); assay: as §1, with “SLC6A4” for “SLC6A3”
Chain of Sodium-dependent serotonin transporter (P31645 whole entry): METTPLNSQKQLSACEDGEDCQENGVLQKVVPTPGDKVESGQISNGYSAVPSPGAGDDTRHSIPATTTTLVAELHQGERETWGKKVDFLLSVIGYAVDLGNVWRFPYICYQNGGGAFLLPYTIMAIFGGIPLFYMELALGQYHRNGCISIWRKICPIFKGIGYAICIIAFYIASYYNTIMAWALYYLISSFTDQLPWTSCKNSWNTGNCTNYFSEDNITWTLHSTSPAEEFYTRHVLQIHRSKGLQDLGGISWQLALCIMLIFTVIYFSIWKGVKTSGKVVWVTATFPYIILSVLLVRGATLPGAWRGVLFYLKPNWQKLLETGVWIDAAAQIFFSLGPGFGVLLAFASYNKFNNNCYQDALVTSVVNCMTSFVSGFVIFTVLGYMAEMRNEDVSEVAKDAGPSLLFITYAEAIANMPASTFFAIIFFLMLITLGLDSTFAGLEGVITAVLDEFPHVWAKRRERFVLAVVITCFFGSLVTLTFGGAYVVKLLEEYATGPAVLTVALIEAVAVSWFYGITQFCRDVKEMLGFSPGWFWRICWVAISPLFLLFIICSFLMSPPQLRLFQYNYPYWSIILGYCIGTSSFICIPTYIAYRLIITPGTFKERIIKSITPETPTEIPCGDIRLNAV

[15] = target: Beta-3 adrenergic receptor (Homo sapiens, UniProt P13945); assay: as §1, with “ADRB3” for “SLC6A3”
Chain of Beta-3 adrenergic receptor (P13945 whole entry): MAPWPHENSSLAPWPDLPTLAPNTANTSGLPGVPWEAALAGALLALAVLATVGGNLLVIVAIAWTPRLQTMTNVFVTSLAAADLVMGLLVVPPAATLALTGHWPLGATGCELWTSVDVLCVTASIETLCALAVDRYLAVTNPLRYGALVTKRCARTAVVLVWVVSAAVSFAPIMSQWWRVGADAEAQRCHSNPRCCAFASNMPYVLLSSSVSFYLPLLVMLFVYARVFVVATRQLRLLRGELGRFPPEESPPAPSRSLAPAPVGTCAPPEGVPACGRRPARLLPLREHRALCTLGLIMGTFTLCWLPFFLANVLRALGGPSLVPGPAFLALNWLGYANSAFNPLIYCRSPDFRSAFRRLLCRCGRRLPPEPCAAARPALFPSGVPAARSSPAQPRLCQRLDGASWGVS

[16] = target: T5, Alpha-1A adrenergic receptor (Homo sapiens, UniProt P35348); assay: as §1, with “ADRA1A” for “SLC6A3”
T5 sequence (P35348 whole entry): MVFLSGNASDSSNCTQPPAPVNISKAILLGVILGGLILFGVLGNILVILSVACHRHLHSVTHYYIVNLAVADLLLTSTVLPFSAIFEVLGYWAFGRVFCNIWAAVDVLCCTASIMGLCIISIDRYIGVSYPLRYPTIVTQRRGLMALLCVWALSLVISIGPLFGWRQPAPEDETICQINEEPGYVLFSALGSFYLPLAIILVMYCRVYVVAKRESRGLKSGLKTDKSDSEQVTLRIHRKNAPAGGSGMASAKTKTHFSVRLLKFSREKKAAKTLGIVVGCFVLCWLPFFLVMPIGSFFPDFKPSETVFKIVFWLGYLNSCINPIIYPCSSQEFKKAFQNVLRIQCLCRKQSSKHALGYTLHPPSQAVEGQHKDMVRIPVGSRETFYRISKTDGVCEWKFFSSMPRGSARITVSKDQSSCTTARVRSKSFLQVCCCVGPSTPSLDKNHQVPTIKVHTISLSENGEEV

[17] = target: T6, Alpha-2B adrenergic receptor (Homo sapiens, UniProt P18089); assay: as §1, with “ADRA2B” for “SLC6A3”
T6 sequence (P18089 whole entry): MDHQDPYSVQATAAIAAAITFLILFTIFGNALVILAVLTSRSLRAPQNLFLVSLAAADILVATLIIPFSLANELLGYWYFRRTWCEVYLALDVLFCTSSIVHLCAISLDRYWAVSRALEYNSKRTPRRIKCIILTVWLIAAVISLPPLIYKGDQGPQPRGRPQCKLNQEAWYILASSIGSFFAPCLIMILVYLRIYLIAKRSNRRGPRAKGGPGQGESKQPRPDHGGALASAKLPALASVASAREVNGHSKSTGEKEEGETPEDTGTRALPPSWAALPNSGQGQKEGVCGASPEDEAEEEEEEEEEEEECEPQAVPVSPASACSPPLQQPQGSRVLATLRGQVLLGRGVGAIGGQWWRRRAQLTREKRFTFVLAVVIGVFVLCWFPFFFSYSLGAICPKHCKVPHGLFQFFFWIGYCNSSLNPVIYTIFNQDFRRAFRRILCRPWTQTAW

[18] = target: T7, Alpha-2C adrenergic receptor (Homo sapiens, UniProt P18825); assay: as §1, with “ADRA2C” for “SLC6A3”
T7 sequence (P18825 whole entry): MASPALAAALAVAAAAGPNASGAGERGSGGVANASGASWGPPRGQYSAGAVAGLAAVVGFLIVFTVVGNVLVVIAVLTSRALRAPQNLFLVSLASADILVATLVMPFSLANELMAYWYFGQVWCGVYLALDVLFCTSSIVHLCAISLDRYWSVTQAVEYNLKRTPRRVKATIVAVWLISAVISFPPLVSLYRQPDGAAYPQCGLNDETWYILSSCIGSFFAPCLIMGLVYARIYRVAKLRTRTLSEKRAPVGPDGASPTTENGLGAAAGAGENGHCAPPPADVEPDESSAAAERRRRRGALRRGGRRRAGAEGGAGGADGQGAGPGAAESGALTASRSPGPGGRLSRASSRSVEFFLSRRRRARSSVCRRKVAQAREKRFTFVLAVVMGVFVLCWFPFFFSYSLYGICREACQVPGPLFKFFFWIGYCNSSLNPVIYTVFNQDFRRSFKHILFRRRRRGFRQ

O=C(O)c1cc(-c2ccc(C3CCNCC3)cc2)c2ccc(-c3ccc(C(F)(F)F)cc3)cc2c1
Ki [1]: 1220 nM | Ki [2]: 2190 nM | Ki [3]: 2400 nM | Ki [4]: 3300 nM | Ki [5]: 2540 nM | Ki [6]: 1160 nM | Ki [7]: 1060 nM | Ki [8]: 1850 nM | Ki [9]: 1190 nM | Ki [10]: 1050 nM

COc1ccnc(N2CCC3(CCCN(Cc4c[nH]c5ccccc45)C3=O)CC2)n1
Ki [2]: > 10000 nM | Ki [5]: 3260 nM | Ki [11]: 803 nM

Cc1c(OCc2cccc(-c3ccc(C(=O)O)cc3)c2)cc2c(c1C)C(=O)C(C1CCCC1)C2 (stereo not drawn)
Ki [12]: > 10000 nM | Ki [13]: > 10000 nM | Ki [14]: > 10000 nM | Ki [15]: 5050 nM

Cc1cccc([C@H](C)c2cnc[nH]2)c1C [DEXMEDETOMIDINE HYDROCHLORIDE]
Ki [16]: 749 nM | Ki [17]: 12.1 nM | Ki [4]: 923 nM | Ki [13]: 2980 nM | Ki [18]: 39.4 nM | Ki [8]: 3260 nM
